Test system: leaky scanning from cap-proximal AUG in HEK293T cells
Assay: Leaky scanning GFP reporter with cap-proximal upstream AUG, western blot
Assay type: cell-based, human
Details: upstream AUG with 16 nt 5′UTR
Text: FIGS. 1A-G: Identification and initial characterization of eIF1-eIF4G1 inhibitors using a high-throughput drug screen (HTS). (1A) A flowchart describing the steps of the recombinant eIF1-eIF4G1 split-RL HTS. (1B) Selection of drugs that inhibit leaky scanning. HEK293T cells were transfected with a short 5′UTR bearing GFP reporter gene described on the top, treated with the indicated HTS hits, and then analyzed by western blot with GFP antibody. US and DS denote upstream and downstream AUG initiation sites, respectively. (1C) A graph showing the change in the ratio of the upstream and downstream AUG following treatment with the indicated drugs. (1D) The chemical structure of the eIF1-eIF4G1 inhibitors, i14G1-10 and i14G1-12. (1E) His-tagged eIF4G1 and His-tagged eIF1 were expressed in BL21 bacteria and purified using nickel NTA beads. Purified His-tagged eIF4G1 and His-tagged eIF1 were incubated with the indicated doses of either i14G1-10 (0-256 μM) or i14G1-12 (0-256 μM) for 5 minutes, followed by fluorescence measurement. For eIF4G1 excitation was at 280 nm and emission was at 350 nm. For eIF1 excitation was at 274 nm and emission was at 304 nm. The data shown represent three independent replicates. IC50 was calculated using Graphpad prism 9. (1F-1G) Western blots of GST pull down. […]
To address the functional significance of the temporal eIF1-eIF4G1 interaction, the inventors set out to develop pharmacological tools against this complex. To this end, the split-Renilla luciferase (RL) complementation assay previously found to be an efficient readout of eIF1 and eIF4G1 interaction in mammalian cells and a highly sensitive and powerful approach for the identification of protein-protein inhibitors was used. […] As knockdown of either eIF1 or eIF4G1 and interference with eIF1-eIF4G1 interaction led to the arrest of leaky scanning from cap-proximal AUG, the selected compounds were analyzed for their effect on initiation from cap-proximal AUG. […]

SMILES	upstream to downstream AUG ratio (leaky scanning)
O=C(/C=C/Sc1ccc(C(F)(F)F)cn1)c1ccccc1 [i14G1-10]	selectively changed the upstream to downstream ratio by inhibiting leaky scanning from the cap-proximal AUG
Cn1ccnc1S/C(=C/C=C(C#N)C#N)c1ccc(Cl)cc1 [i14G1-12]	selectively changed the upstream to downstream ratio by inhibiting leaky scanning from the cap-proximal AUG

Source: patent publication US20250090510A1, “eIF4G1-eIF1 INHIBITORS AND USE THEREOF” (YEDA RESEARCH AND DEVELOPMENT CO. LTD., priority 2022, published 2025)
